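48-hour exposure; five concentrations; linearly interpolated endpoints. GI50 = concentration required for 50% inhibition of growth.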 Active and inactive are the calls of the source. Cut-off read from the data, not from the text of the source: active = GI50 up to about 1.1 µM and inactive = higher.
Experiments:
Experiment in all cases: inhibition of tumour cell growth, NCI panel, 48 h
A498 = test system: A498
MCF7 = test system: MCF7
OVCAR-8 = test system: OVCAR-8
Malme-3M = test system: Malme-3M
786-0 = test system: 786-0
T47D = test system: T47D
MDA-MB-435 = test system: MDA-MB-435
UO-31 = test system: UO-31
HOP-62 = test system: HOP-62
HCC 2998 = test system: HCC 2998
K562 = test system: K562
SF-539 = test system: SF-539
NCI/ADR-RES = test system: NCI/ADR-RES
HL-60 = test system: HL-60
CCRF-CEM = test system: CCRF-CEM
RPMI-8226 = test system: RPMI-8226
SK-MEL-5 = test system: SK-MEL-5
SK-MEL-28 = test system: SK-MEL-28
SN12C = test system: SN12C
NCI-H226 = test system: NCI-H226

Measured: GI50

O=[N+]([O-])c1cccc2nccc(NCCN3CCOCC3)c12
inactive: A498 13.2 µM | MCF7 9.46 µM | OVCAR-8 20.1 µM | Malme-3M 13.8 µM | 786-0 25.2 µM | T47D 23 µM | MDA-MB-435 22.9 µM | UO-31 27.2 µM | HOP-62 15.5 µM | HCC 2998 11.5 µM | K562 11.8 µM | SF-539 20.3 µM | NCI/ADR-RES 29.4 µM | HL-60 10.6 µM | CCRF-CEM 5.55 µM | RPMI-8226 7.94 µM | SK-MEL-5 10 µM | SK-MEL-28 17.9 µM | SN12C 16.3 µM | NCI-H226 10.2 µM

CN(C)c1cccc(NC2=NCCO2)c1
inactive: A498 74.5 µM | MCF7 50.5 µM | OVCAR-8 66.8 µM | Malme-3M 33.9 µM | 786-0 46.6 µM | T47D 69.2 µM | MDA-MB-435 19.8 µM | UO-31 > 100 µM | HOP-62 81.1 µM | HCC 2998 89.9 µM | K562 30.8 µM | SF-539 46.6 µM | NCI/ADR-RES 39.7 µM | HL-60 23.1 µM | CCRF-CEM 33 µM | RPMI-8226 65.5 µM | SK-MEL-5 43.6 µM | SK-MEL-28 42.8 µM | SN12C 52.5 µM | NCI-H226 47.2 µM

O=C1c2cccc([N+](=O)[O-])c2C(=O)N1Cc1ccccc1
inactive: A498 > 100 µM | MCF7 > 100 µM | OVCAR-8 > 100 µM | 786-0 > 100 µM | T47D > 100 µM | MDA-MB-435 > 100 µM | UO-31 > 100 µM | HOP-62 > 100 µM | HCC 2998 > 100 µM | K562 > 100 µM | SF-539 > 100 µM | NCI/ADR-RES > 100 µM | HL-60 > 100 µM | CCRF-CEM > 100 µM | RPMI-8226 > 100 µM | SK-MEL-5 > 100 µM | SK-MEL-28 > 100 µM | SN12C > 100 µM | NCI-H226 > 100 µM

N=c1oc2ccc(Cl)cc2cc1C(=O)NC1CCCCC1
inactive: A498 63.8 µM | MCF7 58.6 µM | OVCAR-8 > 100 µM | 786-0 87.9 µM | T47D 66.2 µM | MDA-MB-435 49.2 µM | HOP-62 > 100 µM | HCC 2998 32.1 µM | K562 66.7 µM | SF-539 81.8 µM | NCI/ADR-RES 81.5 µM | HL-60 39.7 µM | CCRF-CEM 33.7 µM | RPMI-8226 59.3 µM | SK-MEL-5 84.3 µM | SK-MEL-28 98.6 µM | SN12C > 100 µM | NCI-H226 90.4 µM

Cc1ccc(OCC2OC(n3cnc4c(N(C)C)nc(Br)nc43)CC2Oc2ccc(C)cc2)cc1 (centres undefined)
inactive: A498 > 100 µM | MCF7 > 100 µM | OVCAR-8 > 100 µM | Malme-3M > 100 µM | 786-0 > 100 µM | T47D > 100 µM | MDA-MB-435 > 100 µM | UO-31 > 100 µM | HCC 2998 > 100 µM | K562 > 100 µM | SF-539 > 100 µM | NCI/ADR-RES > 100 µM | HL-60 > 100 µM | CCRF-CEM > 100 µM | RPMI-8226 58.2 µM | SK-MEL-5 > 100 µM | SK-MEL-28 > 100 µM | SN12C > 100 µM | NCI-H226 > 100 µM

O=S(=O)(c1ccccc1)C1(CCC2OCCO2)C=CC2(CC1)OCCO2 (centres undefined)
inactive: A498 > 100 µM | MCF7 > 100 µM | OVCAR-8 > 100 µM | Malme-3M > 100 µM | 786-0 > 100 µM | T47D > 100 µM | MDA-MB-435 > 100 µM | UO-31 > 100 µM | HOP-62 > 100 µM | HCC 2998 > 100 µM | K562 > 100 µM | NCI/ADR-RES > 100 µM | HL-60 > 100 µM | CCRF-CEM > 100 µM | RPMI-8226 > 100 µM | SK-MEL-5 > 100 µM | SK-MEL-28 > 100 µM | SN12C > 100 µM | NCI-H226 > 100 µM

C/C(=C/CC[C@]1(CO)CC[C@]2(CO)[C@H](CC[C@@H]3[C@@]4(C)CC[C@H](OC5OCC(O)C(O)C5OC5OC(CO)C(O)C(O)C5O)C(C)(C)[C@@H]4CC[C@]32C)[C@H]1O)CO (some centres undefined)
inactive: A498 > 100 µM | MCF7 > 100 µM | OVCAR-8 > 100 µM | Malme-3M 92.3 µM | 786-0 > 100 µM | T47D > 100 µM | MDA-MB-435 > 100 µM | UO-31 > 100 µM | HOP-62 > 100 µM | K562 > 100 µM | SF-539 > 100 µM | NCI/ADR-RES > 100 µM | HL-60 > 100 µM | CCRF-CEM > 100 µM | RPMI-8226 > 100 µM | SK-MEL-5 > 100 µM | SK-MEL-28 > 100 µM | SN12C > 100 µM | NCI-H226 > 100 µM
